# Measured values: publication PMC6930570, “2-Arylidene-1-indandiones as Pleiotropic Agents with Antioxidant and Inhibitory Enzymes Activities” (Molecules, 2019)
# Assays:
# soybean lipoxygenase = target: T1, soybean lipoxygenase (Glycine max, UniProt P08170); assay: Soybean lipoxygenase inhibition in vitro; format: biochemical; conditions: sodium linoleate substrate, no = no action under the experimental conditions; for inhibition at 100 µM: read-out: LOX (% Inhibition 100 µM)
# T1 construct: purchased Sigma Chemical, Co. (St. Louis)
# T1 sequence (P08170 1-839): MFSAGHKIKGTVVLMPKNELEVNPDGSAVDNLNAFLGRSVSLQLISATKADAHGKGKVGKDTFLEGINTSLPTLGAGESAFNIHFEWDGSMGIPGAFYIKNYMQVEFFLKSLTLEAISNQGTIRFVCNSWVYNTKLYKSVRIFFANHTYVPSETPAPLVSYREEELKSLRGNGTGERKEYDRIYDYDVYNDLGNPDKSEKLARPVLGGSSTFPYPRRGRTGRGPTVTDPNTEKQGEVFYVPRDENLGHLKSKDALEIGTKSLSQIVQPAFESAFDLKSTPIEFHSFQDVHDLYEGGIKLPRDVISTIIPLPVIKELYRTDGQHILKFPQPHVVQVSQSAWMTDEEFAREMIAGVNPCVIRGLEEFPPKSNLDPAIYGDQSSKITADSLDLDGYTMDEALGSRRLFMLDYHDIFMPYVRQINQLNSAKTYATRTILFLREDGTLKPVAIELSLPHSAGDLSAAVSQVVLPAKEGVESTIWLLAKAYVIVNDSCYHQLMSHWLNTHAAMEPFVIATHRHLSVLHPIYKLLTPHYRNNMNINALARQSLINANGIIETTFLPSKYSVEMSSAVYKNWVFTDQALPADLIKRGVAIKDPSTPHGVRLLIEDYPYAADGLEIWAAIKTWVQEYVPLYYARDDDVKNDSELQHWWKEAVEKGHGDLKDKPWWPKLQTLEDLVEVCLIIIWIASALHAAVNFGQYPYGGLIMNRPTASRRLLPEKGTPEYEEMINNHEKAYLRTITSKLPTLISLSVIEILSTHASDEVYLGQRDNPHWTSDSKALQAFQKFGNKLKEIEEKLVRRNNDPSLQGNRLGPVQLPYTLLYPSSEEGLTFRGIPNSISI
# Method: Thus, we used soybean LOX in our in vitro experiments.
# In vitro study was performed as reported previously by our group. Sodium linoleate (0.1 mM) and 0.2 mL of enzyme solution (1/9 × 104 w/v in saline) were used for the incubation of the tested derivatives.
# [1] = test system: carrageenin-induced rat paw edema; assay: Inhibition of the carrageenin-induced rat paw edema (CPE); format: in vivo, Fisher 344 rats; conditions: 0.01 mmol/kg body weight, intraperitoneally, 3.5 h after carrageenin; for inhibition in vivo at 10 µmol/kg: Rattus norvegicus, ip, read-out: CPE % (reduction of the rat paw edema)
# From the text: Carrageenin-induced rat paw edema (CPE) model was used to study the in vivo anti-inflammatory activity of the tested derivatives and the results are presented in Table 3. […] Compounds 2, 7, 8, 10, and 12 presented small differences in their biological activity. The presence of the thienyl group as well as of the furyl leads to higher anti-inflammatory activity (1 and 3) while substitution with a phenyl group leads to two-fold decrease of the activity (28%).
# Edema was induced in the right hind paw of Fisher 344 rats (150–200 g) by the intradermal injection of 0.1 mL 2% carrageenin in water. Both sexes were used while females pregnant were excluded. Each group was composed of 6–15 animals. The animals, which have been bred in our laboratory, were housed under standard conditions and received a diet of commercial food pellets and water ad libitum during the maintenance but they were entirely fasted during the experiment period. Our studies were in accordance with recognised guidelines on animal experimentation. (guidelines for the care and use of laboratory animals published by the Greek Government 160/1991, based on EU regulations 86/609). Rats were kept in the Centre of the School of Veterinary Medicine (EL54 BIO42), Aristotle University of Thessaloniki, which is registered by the official state veterinary authorities (presidential degree 56/2013, in harmonization with the European Directive 2010/63/EEC). The experimental protocols were approved by the Animal Ethics Committee of the Prefecture of Central Macedonia (no. 270079/2500). The tested compounds 0.01 mmol/kg body weight were suspended in water, with a few drops of Tween 80 and ground in a mortar before use and were given intraperitoneally simultaneously with the carrageenin injection. The rats were euthanized 3.5 h after carrageenin injection. The difference between the weight of the injected and uninjected paws was calculated for each animal. The change in paw weight was compared with that in control animals (treated with water) and expressed as a percent inhibition of the edema CPE % values […] [58, 59]. Indomethacin in 0.01 mmol/kg (47%). Values CPE % are the mean from two different experiments with a standard error of the mean less than 10% (Table 3).
# [2] = Superoxide anion radical scavenging activity (PMS/NADPH/NBT); format: biochemical; conditions: 100 μM (stated for compound 3)
# Method: The compounds have been tested to scavenge superoxide anion radicals. However, no results were recorded under the experimental conditions.
# The superoxide anion producing system was set up by mixing PMS, NADPH, and air oxygen. The production of superoxide anion was estimated by the nitrobluetetrazole NBT method. The reaction mixture containing compounds, 3 μM PMS, 78 μM NADPH, and 25 μM NBT in […] phosphate buffer pH 7.4 was incubated for 2 min at room temperature and the absorption was measured at 560 nm against a blank containing PMS. The tested compounds were pre-incubated for 2 min before adding NADPH. Caffeic acid was used as an appropriate standard (76%).
SMILES,inhibition at 100 µM (soybean lipoxygenase) [%],inhibition in vivo at 10 µmol/kg [1] [%],superoxide anion scavenging activity [2] [%],CPE % (reduction of the rat paw edema) [1] [%],LOX (% Inhibition 100 µM) (soybean lipoxygenase)
"Cc1ccsc1C=C1C(=O)c2ccccc2C1=O [Compound 2, (Z)-2-((3-methylthiophen-2-yl)methylene)-1H-indene-1,3(2H)-dione]",45,45,–,–,–
"Cc1ccc(C=C2C(=O)c3ccccc3C2=O)o1 [Compound 3, (Z)-2-((5-methylfuran-2-yl)methylene)-1H-indene-1,3(2H)-dione]",35.7,50,20,–,–
"O=C1C(=Cc2ccccc2)C(=O)c2ccccc21 [Compound 4, 2-benzylidene-1H-indene-1,3(2H)-dione]",35,28,–,–,–
"CN(C)c1ccc(/C=C\C=C2C(=O)c3ccccc3C2=O)cc1 [Compound 6, (Z)-2-(3-(4-(dimethylamino)phenyl)allylidene)-1H-indene-1,3(2H)-dione]",17.7,–,–,–,–
"O=C1C(=Cc2cccc(Oc3ccccc3)c2)C(=O)c2ccccc21 [Compound 7, (Z)-2-(3-phenoxybenzylidene)-1H-indene-1,3(2H)-dione]",67.3,41,–,41,–
"O=C1C(=Cc2ccc(OCc3ccc(Br)cc3)cc2)C(=O)c2ccccc21 [Compound 8, (Z)-2-(4-((4-bromobenzyl)oxy)benzylidene)-1H-indene-1,3(2H)-dione]",3.6,46,–,46,–
"CC(C)(C)c1cc(C=C2C(=O)c3ccccc3C2=O)c(O)c(C(C)(C)C)c1 [Compound 9, (Z)-2-(3,5-di-tert-butyl-2-hydroxybenzylidene)-1H-indene-1,3(2H)-dione]",–,–,–,–,no
"CC(C)(C)c1cc(C=C2C(=O)c3ccccc3C2=O)cc(C(C)(C)C)c1O [Compound 10, (Z)-2-(3,5-di-tert-butyl-4-hydroxybenzylidene)-1H-indene-1,3(2H)-dione]",–,42,–,–,no
"O=C1C(=Cc2c[nH]c3ccccc23)C(=O)c2ccccc21 [Compound 12, (Z)-2-((1H-indol-3-yl)methylene)-1H-indene-1,3(2H)-dione]",58.9,42,–,–,–
